According to US10377770B2 (Novartis AG, priority 2015, dated 2019):

Biological target: C-Raf FL (full length CRAF with Y340E and Y341E activating mutations, co-expressed with h14-3-3 zeta) (Homo sapiens (Human), UniProt P04049, Y340E/Y341E)
Assay: In vitro Raf activity determination, AlphaScreen p-MEK readout, c-Raf (C-Raf FL)
Format: biochemical
Details: c-Raf approximately 4 nM, ATP 1 μM, pre-incubation 60 minutes, reaction 1 hour
Outline: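 Phosphorylation of kinase-dead biotinylated MEK1 (~10 nM) by C-Raf FL (~4 nM) read by AlphaScreen luminescence with anti-phospho-MEK1/2 after EDTA stop. ATP was 1 μM, with a 1 h reaction at room temperature. Compounds were pre-incubated with enzyme and substrate for 60 min in Tris/MgCl2 buffer, pH 7.5.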

C-Raf FL (full length CRAF with Y340E and Y341E activating mutations, co-expressed with h14-3-3 zeta), sequence (P04049 whole entry Y340E/Y341E): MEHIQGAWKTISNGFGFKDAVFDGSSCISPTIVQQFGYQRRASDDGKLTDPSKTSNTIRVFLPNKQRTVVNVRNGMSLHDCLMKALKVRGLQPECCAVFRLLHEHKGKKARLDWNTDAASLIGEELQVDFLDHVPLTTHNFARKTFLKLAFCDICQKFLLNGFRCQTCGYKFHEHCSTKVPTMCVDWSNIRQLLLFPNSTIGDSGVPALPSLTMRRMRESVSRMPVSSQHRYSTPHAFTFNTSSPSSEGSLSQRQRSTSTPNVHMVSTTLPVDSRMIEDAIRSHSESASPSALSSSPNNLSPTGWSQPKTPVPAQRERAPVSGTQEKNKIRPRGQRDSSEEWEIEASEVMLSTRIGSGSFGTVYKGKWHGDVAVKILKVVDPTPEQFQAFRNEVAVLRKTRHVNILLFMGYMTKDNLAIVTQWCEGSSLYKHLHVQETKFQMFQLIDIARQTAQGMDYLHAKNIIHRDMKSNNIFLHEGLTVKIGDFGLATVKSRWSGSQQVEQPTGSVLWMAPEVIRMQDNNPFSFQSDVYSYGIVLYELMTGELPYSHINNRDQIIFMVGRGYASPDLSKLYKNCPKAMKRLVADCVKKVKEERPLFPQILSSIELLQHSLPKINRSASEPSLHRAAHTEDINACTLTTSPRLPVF
C-Raf FL (full length CRAF with Y340E and Y341E activating mutations, co-expressed with h14-3-3 zeta), sequence (P63104 whole entry partner): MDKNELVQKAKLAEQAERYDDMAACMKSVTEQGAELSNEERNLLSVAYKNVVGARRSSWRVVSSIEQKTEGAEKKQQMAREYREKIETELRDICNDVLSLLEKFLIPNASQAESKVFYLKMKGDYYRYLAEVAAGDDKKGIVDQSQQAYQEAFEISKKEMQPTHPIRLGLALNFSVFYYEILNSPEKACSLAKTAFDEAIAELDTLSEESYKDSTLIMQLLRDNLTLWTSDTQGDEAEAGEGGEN

| Structure (SMILES) | IC50 |
| --- | --- |
| Cc1ccc(NC(=O)c2ccnc(C(F)(F)F)c2)cc1-c1cnc2c(c1)N1CCOC[C@H]1C[C@H]2OCCO [Example 508, N-(3-((4aR,6R)-6-(2-hydroxyethoxy)-1,2,4,4a,5,6-hexahydro-[1,4]oxazino[4,3-a][1,5]naphthyridin-9-yl)-4-methylphenyl)-2-(trifluoromethyl)iso-nicotinamide] | 0.2 nM |
| Cc1ccc(NC(=O)c2ccnc(C(F)(F)F)c2)cc1-c1cnc2c(c1)N1CCOC[C@@H]1C[C@@H]2OCCO [Example 509, N-(3-((4aS,6S)-6-(2-hydroxyethoxy)-1,2,4,4a,5,6-hexahydro-[1,4]oxazino[4,3-a][1,5]naphthyridin-9-yl)-4-methylphenyl)-2-(trifluorometh-yl)isonicotinamide] | 0.2 nM |
| Cc1ccc(NC(=O)c2ccnc(C(F)(F)F)c2F)cc1-c1cnc2c(c1)N1CCOC[C@H]1C[C@H]2OCCO [Example 510, 3-fluoro-N-(3-((4aR,6R)-6-(2-hydroxyethoxy)-1,2,4,4a,5,6-hexahydro-[1,4]oxazino[4,3-a][1,5]naphthyridin-9-yl)-4-methylphenyl)-2-(trifluoromethyl)iso-nicotinamide] | 0.1 nM |
| Cc1ccc(NC(=O)c2ccnc(C(C)(C)F)c2)cc1-c1cnc2c(c1)N1CCOC[C@H]1C[C@H]2OCCO [Example 511, 2-(2-fluoropropan-2-yl)-N-(3-((4aR,6R)-6-(2-hydroxyethoxy)-1,2,4,4a,5,6-hexahydro-[1,4]oxazino[4,3-a][1,5]naphthyridin-9-yl)-4-methylphenyl)iso-nicotinamide] | 0.2 nM |
| Cc1ccc(NC(=O)c2cnnc(C(F)(F)F)c2)cc1-c1cnc2c(c1)N1CCOC[C@H]1C[C@H]2OCCO [Example 512, N-(3-((4aR,6R)-6-(2-hydroxyethoxy)-1,2,4,4a,5,6-hexahydro-[1,4]oxazino[4,3-a][1,5]naphthyridin-9-yl)-4-methylphenyl)-6-(trifluorometh-yl)pyridazine-4-carboxamide] | 0.4 nM |
| Cc1ccc(NC(=O)c2ccnc(C(C)(F)F)c2)cc1-c1cnc2c(c1)N1CCOC[C@H]1C[C@H]2OCCO [Example 513, 2-(1,1-difluoroethyl)-N-(3-((4aR,6R)-6-(2-hydroxyethoxy)-1,2,4,4a,5,6-hexahydro-[1,4]oxazino[4,3-a][1,5]naphthyridin-9-yl)-4-methylphenyl)iso-nicotinamide] | 0.1 nM |
| Cc1ncc(NC(=O)c2cccc(C(F)(F)F)c2)cc1-c1cnc2c(c1)N1CCOC[C@H]1C[C@H]2OCCO [Example 514, N-(5-((4aR,6R)-6-(2-hydroxyethoxy)-1,2,4,4a,5,6-hexahydro-[1,4]oxazino[4,3-a][1,5]naphthyridin-9-yl)-6-methylpyridin-3-yl)-3-(trifluorometh-yl)benzamide] | 0.4 nM |
| Cc1ccc(NC(=O)c2ccnc(C(C)(F)F)c2)cc1-c1cnc2c(c1)N1CCOC[C@H]1[C@@](C#N)(CF)C2 [Example 515, N-(3-((4aR,5S)-5-cyano-5-(fluoromethyl)-1,2,4,4a,5,6-hexahydro-[1,4]oxazino[4,3-a][1,5]naphthyridin-9-yl)-4-methylphenyl)-2-(1,1-difluoroethyl)iso-nicotinamide] | 0.1 nM |
| Cc1ccc(NC(=O)c2ccnc(C(C)(F)F)c2)cc1-c1cnc2c(c1)N1CCOC[C@@H]1[C@](C#N)(CF)C2 [Example 516, N-(3-((4aS,5R)-5-cyano-5-(fluoromethyl)-1,2,4,4a,5,6-hexahydro-[1,4]oxazino[4,3-a][1,5]naphthyridin-9-yl)-4-methylphenyl)-2-(1,1-difluoroethyl)iso-nicotinamide] | 0.1 nM |
| Cc1ccc(NC(=O)c2ccnc(C(C)(F)F)c2)cc1-c1cnc2c(c1)N1CCOC[C@@H]1[C@@](C#N)(CF)C2 [Example 517, N-(3-((4aS,5S)-5-cyano-5-(fluoromethyl)-1,2,4,4a,5,6-hexahydro-[1,4]oxazino[4,3-a][1,5]naphthyridin-9-yl)-4-methyphenyl)-2-(1,1-difluoroethyl)iso-nicotinamide] | 0.1 nM |
